Assay results published in PubChem BioAssay AID256 (DTP/NCI, 2004).
“And” between values parts separate entries of the source, which are not always exact repeats. Identical values can stand only once. Inconclusive results and toxic doses are left out.

System: CD2F1 mice, L1210 leukemia ip, survival T/C
Assay: NCI In Vivo Anticancer Drug Screen. Data for tumor model L1210 Leukemia (intraperitoneal) in CD2F1 (CDF1) mice
Conditions: higher = longer survival
Outline: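 Activity against a transplanted murine tumor was judged by comparing the compound group with a vehicle group. The outcome in the treated animals was divided by that in the controls.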

[1] = endpoint: mean survival time, dose: 50.0 mg/kg/injection, schedule: Q01DX009 (ip), vehicle: saline with Tween-80
[2] = endpoint: mean survival time, dose: 100.0 mg/kg/injection, schedule: Q01DX009 (ip), vehicle: saline with Tween-80
[3] = endpoint: mean survival time, dose: 100.0 mg/kg/injection, schedule: Q04DX003 (ip), vehicle: saline with Tween-80
[4] = endpoint: mean survival time, dose: 200.0 mg/kg/injection, schedule: Q01DX009 (ip), vehicle: saline with Tween-80
[5] = endpoint: mean survival time, dose: 200.0 mg/kg/injection, schedule: Q04DX003 (ip), vehicle: saline with Tween-80
[6] = endpoint: mean survival time, dose: 400.0 mg/kg/injection, schedule: Q04DX003 (ip), vehicle: saline with Tween-80
[7] = endpoint: mean survival time, dose: 25.0 mg/kg/injection, schedule: Q01DX009 (ip), vehicle: saline with Tween-80

CC(C)CC(=O)Nc1ccccc1
T/C (endpoint: mean survival time, dose: 100.0 mg/kg/injection, schedule: Q01DX009 (ip), vehicle: saline sonified): 101 % of control
T/C (endpoint: mean survival time, dose: 200.0 mg/kg/injection, schedule: Q01DX009 (ip), vehicle: saline sonified): 102 % of control
T/C (endpoint: mean survival time, dose: 400.0 mg/kg/injection, schedule: Q01DX009 (ip), vehicle: saline sonified): 93 % of control

c1ccc(P(c2ccccc2)c2ccccc2)cc1
T/C [1]: 96 % of control
T/C [2]: 100 % of control
T/C [3]: 100 % of control
T/C [4]: 98 % of control
T/C [5]: 100 % of control
T/C [6]: 93 % of control

NC1CCC(CCCC2CCCC2)CC1 (stereo unspecified)
T/C (endpoint: mean survival time, dose: 6.25 mg/kg/injection, schedule: Q01DX009 (ip), vehicle: saline with Tween-80): 102 % of control
T/C (endpoint: mean survival time, dose: 12.5 mg/kg/injection, schedule: Q01DX009 (ip), vehicle: saline with Tween-80): 98 % of control
T/C [7]: 102 % of control

CCCCCCCCCCSC(=N)N
T/C (endpoint: mean survival time, dose: 6.25 mg/kg/injection, schedule: Q01DX001 (ip), vehicle: Klucel (hydroxypropylcellulose) (HPC)): 102 % of control
T/C (endpoint: mean survival time, dose: 12.5 mg/kg/injection, schedule: Q01DX001 (ip), vehicle: Klucel (hydroxypropylcellulose) (HPC)): 112 % of control
T/C (endpoint: mean survival time, dose: 25.0 mg/kg/injection, schedule: Q01DX001 (ip), vehicle: Klucel (hydroxypropylcellulose) (HPC)): 96 % of control

CC(N)CCCO (stereo unspecified)
T/C (endpoint: mean survival time, dose: 200.0 mg/kg/injection, schedule: Q01DX001 (ip), vehicle: saline): 109 % of control
T/C (endpoint: mean survival time, dose: 400.0 mg/kg/injection, schedule: Q01DX001 (ip), vehicle: saline): 94 % of control

Cc1ccc2nc(-c3ccc([N+](=O)[O-])cc3)oc(=O)c2c1
T/C [1]: 93 % of control
T/C [2]: 97 % of control
T/C [4]: 93 % of control

O=C1C=C(N2CCOCC2)c2ccccc2C1=O
T/C (endpoint: mean survival time, dose: 75.0 mg/kg/injection, schedule: Q01DX001 (ip), vehicle: saline): 100 % of control
T/C (endpoint: mean survival time, dose: 150.0 mg/kg/injection, schedule: Q01DX001 (ip), vehicle: saline): 94 % of control

O=c1n[n+]([O-])ccn1C1OC(CO)C(O)C1O (stereo unspecified)
T/C (endpoint: mean survival time, dose: 50.0 mg/kg/injection, schedule: Q01DX009 (ip), vehicle: saline): 107 % of control
T/C (endpoint: mean survival time, dose: 100.0 mg/kg/injection, schedule: Q01DX009 (ip), vehicle: saline): 120 % of control and 121 % of control
T/C (endpoint: mean survival time, dose: 300.0 mg/kg/injection, schedule: Q01DX009 (ip), vehicle: saline): 157 % of control and 173 % of control
T/C (endpoint: mean survival time, dose: 400.0 mg/kg/injection, schedule: Q01DX009 (ip), vehicle: saline): 150 % of control
T/C (endpoint: mean survival time, dose: 600.0 mg/kg/injection, schedule: Q01DX009 (ip), vehicle: saline): 91 % of control
T/C (endpoint: median survival time, dose: 200.0 mg/kg/injection, schedule: Q01DX009 (ip), vehicle: saline): 150 % of control
T/C (endpoint: median survival time, dose: 288.0 mg/kg/injection, schedule: Q01DX009 (ip), vehicle: saline): 161 % of control
T/C (endpoint: median survival time, dose: 300.0 mg/kg/injection, schedule: Q01DX009 (ip), vehicle: saline): 174 % of control
T/C (endpoint: median survival time, dose: 480.0 mg/kg/injection, schedule: Q01DX009 (ip), vehicle: saline): 180 % of control

CC(=O)Nc1cccc(C(F)(F)F)c1
T/C (endpoint: mean survival time, dose: 50.0 mg/kg/injection, schedule: Q01DX009 (ip), vehicle: Klucel (hydroxypropylcellulose) (HPC)): 100 % of control
T/C (endpoint: mean survival time, dose: 100.0 mg/kg/injection, schedule: Q01DX009 (ip), vehicle: Klucel (hydroxypropylcellulose) (HPC)): 93 % of control
T/C (endpoint: mean survival time, dose: 200.0 mg/kg/injection, schedule: Q01DX009 (ip), vehicle: Klucel (hydroxypropylcellulose) (HPC)): 100 % of control

CS(=O)(=O)OC(OS(C)(=O)=O)(OS(C)(=O)=O)OS(C)(=O)=O
T/C [3]: 111 % of control
T/C [5]: 105 % of control
T/C [6]: 105 % of control

Cc1cc(C)c(NC(=O)CC#N)c(C)c1
T/C [7]: 88 % of control
T/C [1]: 86 % of control
T/C [2]: 93 % of control

Cc1ccc(C2NC(=S)N3C(c4ccc(C)cc4)NC(=S)N23)cc1 (stereo unspecified)
T/C (endpoint: median survival time, dose: 25.0 mg/kg/injection, schedule: Q01DX009 (ip), vehicle: Klucel (hydroxypropylcellulose) (HPC)): 105 % of control
T/C (endpoint: median survival time, dose: 50.0 mg/kg/injection, schedule: Q01DX009 (ip), vehicle: Klucel (hydroxypropylcellulose) (HPC)): 104 % of control
T/C (endpoint: median survival time, dose: 100.0 mg/kg/injection, schedule: Q01DX009 (ip), vehicle: Klucel (hydroxypropylcellulose) (HPC)): 106 % of control
T/C (endpoint: median survival time, dose: 200.0 mg/kg/injection, schedule: Q01DX009 (ip), vehicle: Klucel (hydroxypropylcellulose) (HPC)): 104 % of control
T/C (endpoint: median survival time, dose: 400.0 mg/kg/injection, schedule: Q01DX009 (ip), vehicle: Klucel (hydroxypropylcellulose) (HPC)): 101 % of control
T/C (endpoint: median survival time, dose: 800.0 mg/kg/injection, schedule: Q01DX009 (ip), vehicle: Klucel (hydroxypropylcellulose) (HPC)): 106 % of control

CC(=O)O/C=C/C=C/C=N/c1nc2c(c(=O)n(C)c(=O)n2C)n1C
T/C (endpoint: mean survival time, dose: 12.5 mg/kg/injection, schedule: Q01DX005 (ip), vehicle: distilled water + Tween-80): 105 % of control
T/C (endpoint: mean survival time, dose: 25.0 mg/kg/injection, schedule: Q01DX005 (ip), vehicle: distilled water + Tween-80): 91 % of control
T/C (endpoint: mean survival time, dose: 50.0 mg/kg/injection, schedule: Q01DX005 (ip), vehicle: distilled water + Tween-80): 94 % of control
T/C (endpoint: mean survival time, dose: 100.0 mg/kg/injection, schedule: Q01DX005 (ip), vehicle: distilled water + Tween-80): 103 % of control
T/C (endpoint: mean survival time, dose: 200.0 mg/kg/injection, schedule: Q01DX005 (ip), vehicle: distilled water + Tween-80): 97 % of control
